The source of these data is patent US20220331301A1, “CYSTIC FIBROSIS TRANSMEMBRANE CONDUCTANCE REGULATOR MODULATORS FOR TREATING AUTOSOMAL RESESSIVE POLYCYSTIC KIDNEY DISEASE” (The Johns Hopkins University, priority 2021, published 2022).

Test [1] relates to Pkhd1^del4/del4 cholangiocytes. Description: Cyclic AMP assay in cholangiocytes. It counts as cell-based, mice. The settings on record: for cAMP levels: VX-809 (10 μM) 16 h. The protocol:
The experiment was repeated four times. For all graphs, P<0.05, ***P<0.001 and ****P<0.0001;
Confluent cells were treated with VX-809 (10 μM) or DMSO for 16 h before being harvested for assay. Cyclic AMP levels were measured with a direct cAMP Enzyme Immunoassay Kit (Sigma, #CA200) according to the manufacturer's protocol. The results are expressed as pmole/mL.
For orientation: cAMP levels reflect the balance of adenylyl cyclase and phosphodiesterase activity.

For the next test, the system named is fibrocystin (FPC). Description: FPC expression in WT and Pkhd1del4/del4 cholangiocytes. The test is classed as cell-based, mice. The settings on record: Pkhd1^del4/del4 cholangiocytes. The method, then: FIG. 1A and FIG. 1B show the expression of fibrocystin (FPC) in normal and reduced levels in Pkhd1^del4/del4 cholangiocytes. The residual level of FPC is expected in Pkhd1^del4/del4 cholangiocytes. Garcia-Gonzalez et al., 2007. VX-809 increases FPC. Columns represent the means±SEM of the FPC expression. The data were analyzed by non-parametric t-test. The experiment was repeated 3-4 times; P<0.05;
(Methods and cells provided by the Yale O'Brian Center) To create the cholangiocyte cultures PKhd1del/4/del4, Garcia-Gonzalez et al., 2007, animals were crossed with mice transgenic for the Sv40 large T Antigen (strain name SV40 T-antigen JAX strain #002233). Segments of intrahepatic bile ducts were microdissected from livers perfused via the portal vein with molten agarose containing toluidine blue to mark the veins. The liver parenchyma was stripped until the biliary tree was identified and the bile duct units were seeded onto rat type I collagen coated plates. Cells were cultured under non-permissive conditions in the following medium: DMEM/F12 with 5% fetal bovine serum, 10 μL/mL insulin-transferrin selenium, 3.4 μg/mL triiodothyronine, 50,000 U penicillin/streptomycin under humidified conditions at 37° C. in 5% CO2. After one week, the cells were cultured under permissive conditions in the presence of 10 U of interferon-γ at 33° C. in 5% CO2. […]

In another test the test system is Pkhd1 kidney cells. Description: Fura-2 Ca2+ release in renal ARPKD cell line. Particulars: VX-809 (10 μM) for 16 hours. The test is classed as cell-based, human. The method, then: FIG. 16A, FIG. 16B, and FIG. 16C show Ca^2+ release in a renal ARPKD cell line treated with VX-809. Intracellular Ca^2+ (F340/F380) levels were measured by ratiometric Fura-2 AM analysis of WT and Pkhd1 kidney cells treated with VX-809 (10 μM) for 16 hours. […] Amplitude was measured as the […] base to peak Δf/f. Asterisk indicates significance between the two groups. Significance between the two groups was analyzed using Student's t-test, n=5-6. ****P<0.0001.
The cells were loaded with the cell-permeant acetoxymethyl (AM) ester of the calcium indicator fura-2 (fura-2/AM) at 37° C. for 90 min. Measurements were made on a Zeiss inverted microscope equipped with a Sutter Lambda 10-2 controller and filter wheel assembly. A Zeiss FluorArc mercury lamp was used to excite the cells at 340 and 380 nm, and the emission response was measured at 510 nm. Cell fluorescence was measured in response to excitation for 1000 ms at 340 nm and 200 ms at 380 nm once every 4 s. Image acquisition, image analysis, and filter wheel control were performed with IPLab software (see Yanda et al., 2019b). […]

The test system of a further test is CK7. In words: CK7 expression in cholangiocytes. The test is classed as cell-based, mice. Particulars: Pkhd1^del4/del4 cells. From the text:
(Methods and cells provided by the Yale O'Brian Center) To create the cholangiocyte cultures PKhd1del/4/del4, Garcia-Gonzalez et al., 2007, animals were crossed with mice transgenic for the Sv40 large T Antigen (strain name SV40 T-antigen JAX strain #002233). Segments of intrahepatic bile ducts were microdissected from livers perfused via the portal vein with molten agarose containing toluidine blue to mark the veins. The liver parenchyma was stripped until the biliary tree was identified and the bile duct units were seeded onto rat type I collagen coated plates. Cells were cultured under non-permissive conditions in the following medium: DMEM/F12 with 5% fetal bovine serum, 10 μL/mL insulin-transferrin selenium, 3.4 μg/mL triiodothyronine, 50,000 U penicillin/streptomycin under humidified conditions at 37° C. in 5% CO2. After one week, the cells were cultured under permissive conditions in the presence of 10 U of interferon-γ at 33° C. in 5% CO2. When confluent, cells were passaged by digesting the collagen slab below the cells (60 min; 37° C.; DMEM/F12 with 2 mg/mL dispase and 1 mg/mL collagenase type 11), then washed twice in PBS and plated onto collagen coated support systems. Clonal cell lines were generated by single cell isolation. Cells were differentiated for 10 days at 37° C. without interferon-γ for experimental use.

The test system of a further test is PC2. Description: Western blot of PC2 protein expression in cholangiocytes. The test is classed as cell-based, mice. Particulars: Pkhd1del4/del4 cholangiocytes. From the text:
Please note the reduction of PC2 protein in Pkhd1del4/del4 cholangiocytes and the increase following VX-809 treatment;
In general terms: In western blotting, separated proteins are transferred to a membrane and probed.

Test [2] has as its system Pkhd1^del4/del4 cholangiocytes. In words: Fura-2 Ca2+ imaging, thapsigargin-induced ER Ca2+ release in cholangiocytes. The test is classed as cell-based, mice. The settings on record: VX-809 (10 μM) for 16 h; thapsigargin (4 μM). The method, then:
FIG. 6A, FIG. 6B, and FIG. 6C show intracellular Ca2+ (F340/F380) levels obtained by ratiometric Fura-2 AM analysis of WT and Pkhd1^del4/del4 cholangiocytes, the latter treated with VX-809 (10 μM) for 16 h. (FIG. 6A) Representative traces of ER Ca2+ release in response to thapsigargin (4 μM) in WT and Pkhd1^del4/del4 cholangiocytes the latter treated with VX-809. Resting calcium levels (FIG. 6B and the average amplitude of Ca2+ release (FIG. 6C) in response to thapsigargin;
The ER is one of the major repositories for Ca2+ in the cell. Burgoyne et al., 2015. Misregulation of Ca2+ signaling is a hallmark of ADPKD. Yanda et al., 2019b. To understand whether the ER Ca2+ movement is altered, we measured ER Ca2+ release; we treated the cells with thapsigargin, a specific inhibitor of the ER Ca2+-ATPase that, when applied, allows Ca2+ to leak out of the ER through independent Ca2+-permeable pathways. Jackson et al., 1988; Thastrup et al., 1990; Thastrup et al., 1989.
The cells were loaded with the cell-permeant acetoxymethyl (AM) ester of the calcium indicator fura-2 (fura-2/AM) at 37° C. for 90 min. […] A Zeiss FluorArc mercury lamp was used to excite the cells at 340 and 380 nm, and the emission response was measured at 510 nm. Cell fluorescence was measured in response to excitation for 1000 ms at 340 nm and 200 ms at 380 nm once every 4 s. […]

Test [3] concerns renal cell models of ADPKD. Particulars: shown previously, Yanda et al., 2018; cited from earlier work.

“Also recorded” adds a separate entry of the source.

Turning to lumacaftor [VX-809], the “cAMP reduction compared with inhibitor 172” value in test [1] (Pkhd1del4/del4 cholangiocytes) is recorded as “reduces cAMP more effectively than the inhibitor 172”. The cAMP levels result in test [1] (absence of forskolin) and in test [1] (presence of forskolin (100 μM) for 30 min) was “reduces cAMP levels; also recorded: reduced the levels of cAMP” each time. For the same substance, the FPC expression result in the test on fibrocystin (FPC) was “increases FPC and CFTR protein levels”. The “resting Ca^2+” value with Pkhd1 kidney cells is “not affected”. Also, in the test with Pkhd1 kidney cells (thapsigargin (4 μM)), the “thapsigargin-induced ER Ca^2+ release” value is given as “dramatically reduced; also recorded: significantly lowered”. Also, the CK7 expression result in the test with CK7 is “increased”. For the same substance, the PC2 protein level entry in the test on PC2 is listed as “trends back to normal; also recorded: increase”. For the same substance, in test [2], the “thapsigargin-induced ER Ca2+ release” value is “dramatically reduced”. Further, the “cysts in renal cell models of ADPKD” value in test [3] is given as “can reduce cysts”.
